Experimental data: publication PMC12505902, “Inhibitors of trehalose-6-phosphate synthase activity in fungal pathogens compromise thermal tolerance pathways” (mBio, 2025)
Read-outs that look alike come from different tables or passages of the source.

Test system: C. deneoformans (JEC21)
Test: MIC dose-response assay in YPD
Type: cell-based
Details: Cryptococcus deneoformans
Experimental: Fig 4 4456dh inhibits the growth of Candida and Cryptococcus species. Two-fold dose response assays were performed against (A) C. albicans at 42°C and C. auris at 39°C, (B) C. glabrata at 42°C, and (C) C. neoformans, C. deneoformans, and C. gattii at 37°C. 4456dh was administered at the concentrations indicated. Cultures were grown in YPD at the listed temperatures for 48 hours for Candida species and 72 hours for Cryptococcus species. Experimental temperatures reflect the temperatures at which the fungi experience heat stress. Left: relative growth of treated samples was calculated by averaging technical triplicates and normalizing the OD600 of each treated well to the average OD600 of the untreated WT controls, after the absorbance due to the compound was subtracted. The MIC80 values, calculated based on the OD600 values, are indicated in the white text on each heat map. Right: representative spot assays show the ability of cells to grow after exposure to 4456dh and indicate fungicidal activity of 4456dh. […]
124 technical replicates. Growth, as determined by a reading of absorbance at 600 nm, was
125 normalized to untreated controls and was corrected for the absorbance of 4456dh in the YPD […]
129 overnight cultures was quantified by measuring the OD600 and corrected for the background
130 absorbance of the medium. Antifungal potency for 4456dh was assessed by minimum inhibitory […]
137 replicates. Growth, as determined by a reading of absorbance at 600 nm, was normalized to
138 untreated controls and was corrected for the absorbance of 4456dh in the YPD medium. […]
139 minimum inhibitory concentration causing 80% growth reduction, or MIC80, was determined based […]
157 Optical density (OD600) was determined with an Infinite PRO plate reader ( Tecan). […]

In the case of Cn1cc(-c2csc(NC(=O)Cc3ccccn3)n2)cn1 [Compound 4456dh], the MIC80 is reported as greater than 13000 µM, the MIC80 (37°C, YPD, 72 hours, read-out: MIC80) is reported as 3000 µM and the MIC80 (Supplemental Table 5, This publication, read-out: MIC80) is reported as 1190 µg/mL.
